Assay results reported in US9809853B2, “Calcium-activated chloride channel involved in human sweat formation” (BRAIN Biotechnology Research and Information Network AG, priority 2012, dated 2017).

What was measured:
[1] = target: T1, CaCC (Ca^2+-activated chloride channels) in NCL-SG3-hsYFP cells (Homo sapiens, UniProt Q5XXA6); experiment: hsYFP fluorescence quenching (Cl^− efflux/I^− influx) assay in NCL-SG3-hsYFP CaCC activity sensor cells; format: cell-based; conditions: for Effect on hsYFP quenching by Cl^− efflux/I^− influx mediated by ATP: 25 μM; for Dose dependence of inhibition of CaCC-mediated Cl^− efflux: increasing inhibitor concentrations, stimulation with 330 μM ATP
T1 sequence (Q5XXA6 1-986): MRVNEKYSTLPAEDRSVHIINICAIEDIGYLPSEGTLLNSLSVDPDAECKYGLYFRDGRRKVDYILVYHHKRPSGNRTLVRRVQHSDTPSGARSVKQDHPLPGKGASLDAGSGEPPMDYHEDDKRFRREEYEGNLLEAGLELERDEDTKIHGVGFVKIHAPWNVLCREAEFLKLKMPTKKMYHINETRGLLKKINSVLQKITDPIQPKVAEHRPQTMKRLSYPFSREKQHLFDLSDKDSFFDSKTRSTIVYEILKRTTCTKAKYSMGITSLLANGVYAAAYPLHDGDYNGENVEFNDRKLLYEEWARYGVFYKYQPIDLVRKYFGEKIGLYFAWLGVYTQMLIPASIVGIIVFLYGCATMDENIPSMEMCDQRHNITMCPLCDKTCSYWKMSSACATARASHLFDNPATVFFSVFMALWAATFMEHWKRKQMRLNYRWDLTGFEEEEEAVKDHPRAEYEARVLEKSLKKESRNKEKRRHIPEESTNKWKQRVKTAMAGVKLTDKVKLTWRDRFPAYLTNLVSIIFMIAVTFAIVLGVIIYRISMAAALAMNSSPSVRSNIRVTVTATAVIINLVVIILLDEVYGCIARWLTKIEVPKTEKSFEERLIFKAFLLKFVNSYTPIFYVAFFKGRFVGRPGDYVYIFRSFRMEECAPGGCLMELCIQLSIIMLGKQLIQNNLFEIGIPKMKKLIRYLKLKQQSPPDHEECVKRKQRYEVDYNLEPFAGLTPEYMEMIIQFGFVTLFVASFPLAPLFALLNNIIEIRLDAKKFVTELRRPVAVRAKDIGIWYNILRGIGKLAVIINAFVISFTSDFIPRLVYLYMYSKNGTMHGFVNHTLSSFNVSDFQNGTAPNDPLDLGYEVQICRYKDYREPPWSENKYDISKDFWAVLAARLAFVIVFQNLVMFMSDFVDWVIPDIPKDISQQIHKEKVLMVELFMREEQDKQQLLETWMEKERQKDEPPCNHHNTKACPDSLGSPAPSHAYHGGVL
Description: The halide inside the cell functionally interacts with the halide-sensitive cytoplasmic indicator protein, which leads to a quenching of the signal provided by the halide-sensitive cytoplasmic indicator protein. The more halide (such as e.g. iodide) flows into the cell, the weaker the signal emitted by the halide-sensitive cytoplasmic indicator protein becomes. This alteration of the signal emitted by the halide-sensitive cytoplasmic indicator protein is determined in a third step of the method of the invention. Due to the fact that the influx of halide into the cell is proportional to the efflux of chloride ions, the halide influx is used as a direct measure for chloride secretion. To determine the amount of chloride secretion, the fluorescence decrease is plotted against time (Δfluorescence/Δtime) and the initial slope of the resulting graph represents the iodide influx rate (sec^−1), which in turn is directly proportional to the chloride efflux rate, representing the amount of chloride secretion per time. In a fourth step, this amount of chloride secretion determined in the presence of a test compound is compared to the amount of chloride secretion determined in the absence of a said compound.
Effect of CaCC inhibitors on sweat gland-specific Ca^2+-dependent […] and proportional I^− influx was determined using NCL-SG3-hsYFP cells. Quenching of intracellular hsYFP fluorescence was measured and plotted over time. Exemplary raw data (B) and fitted curves are shown (A). NCL-SG3-hsYFP cells were incubated with 50 μM tannic acid (TA), 25 μM niflumic acid (NFA), 25 μM 5-nitro-2-(3-phenylpropyl-amino) benzoic acid (NPPB), 100 μM epigallocatechin-3-gallate (EGCG) for 15 min and then stimulated with 330 μM ATP.
Sweat gland-specific Ca^2+-dependent Cl^− efflux and a proportional I^− influx was determined using NCL-SG3-hsYFP cells. Quenching of intracellular hsYFP fluorescence was measured and plotted over time. Exemplary fitted curves are shown. NCL-SG3-hsYFP cells were incubated with increasing concentrations of tannic acid (TA) and then stimulated with 330 μM ATP. […] NCL-SG3-hsYFP cells were incubated with increasing concentrations of CaCC inhibitors and quenching of intracellular hsYFP fluorescence was measured after stimulation with ATP. The rate of […] (sec^−1), which is proportional to Ca^2+-dependent […] was calculated from the initial slope of the measured hsYFP fluorescence (ΔYFP fluorescence/Δtime) and is a direct measure of CaCC activity. IC50 values were determined by plotting the percentage of residual CaCC activity against the individual inhibitor concentration.
NCL-SG3-hsYFP cells were routinely cultivated in Williams' Medium E supplemented with 9% Fetal Calf Serum, 3.5 mM Glutamine, 9 ng/μl Hydrocortisone, Insulin-Transferrin-Selenium-Supplement (PAA Laboratories) at 37° C. and 5% CO2. For microplate assays, 20,000 cells were seeded in 96-well black-walled, clear bottom microplates (Costar) and cultivated for 2 days until cells reached confluency. Cells were washed three times with 100 μl modified Krebs-Henseleit (KH) buffer (137 mM NaCl, 2.7 mM KCl, 1.2 mM MgSO4, 1.2 mM KH2PO4, 4.2 mM NaHCO3, 1.3 mM CaCl2, 10 mM HEPES, pH 7.4) and incubated with the test compound in 50 μl KH-buffer for 15 min at 37° C. and 5% CO2. Microplates were transferred into an automated fluorescence plate reader (FlexStation®, Molecular Devices) and cellular hsYFP fluorescence was continuously recorded every 3.5 sec until end of the experiment (excitation at 485 nm, emission at 535 nm, cutoff 515 nm).

[2] = test system: CaCCs in human colonic epithelial cells; conditions: reference (44); cited from earlier work

| Compound | Effect on hsYFP quenching by Cl^− efflux/I^− influx mediated by ATP ([1]; 15 min, then 330 μM ATP) | Dose dependence of inhibition of CaCC-mediated Cl^− efflux [1] | Quenching of hsYFP fluorescence after addition of Ca^2+-elevating agent ([1]; 1 μM) | Inhibition of CaCCs / Cl^− currents [2] | Effect on CaCC-mediated Cl^− efflux (hsYFP quenching) mediated by ATP ([1]; 100 μM, 15 min, then 330 μM ATP) |
| --- | --- | --- | --- | --- | --- |
| O=C(O)c1cccnc1Nc1cccc(C(F)(F)F)c1 [NFA, niflumic acid] | significant reduction of hsYFP quenching | antagonized CaCC-mediated Cl^− efflux in a dose-dependent manner | – | – | – |
| O=C(O)c1cc([N+](=O)[O-])ccc1NCCCc1ccccc1 [NPPB, 5-nitro-2-(3-phenylpropyl-amino) benzoic acid] | significant reduction of hsYFP quenching | antagonized CaCC-mediated Cl^− efflux in a dose-dependent manner | – | – | – |
| C[C@H](CCC(=O)O)C[C@H](C)C[C@H](C)C(=O)/C=C(\O)[C@H](C)C[C@H](C)C/C=C/[C@@H](C)[C@@H](O)[C@@H](C)[C@@H](O)C[C@@H]1CC[C@@](C)([C@H]2CC[C@@](C)([C@@H](C)O)O2)O1 [ionomycin] | – | – | quick quenching of the hsYFP fluorescence followed by a slow recovery | – | – |
| epigallocatechin-3-gallate [EGCG] | – | – | – | effectively inhibits | no effect |
